Experimental findings from PMC7949102 (The Journal of Biological Chemistry, 2021) are described below.

One may read the stoichiometry N as a count of units in the complex or per binding partner.

The target in one data set is T1, Llo2453 (Legionella longbeachae, UniProt D3HKA9).
T1 construct: gene LLO_2453
It is filed as biochemical.

For a further data set, the target named is T2, Ltuc1293 (Legionella tucsonensis, UniProt A0A0W0ZWS2).
T2 construct: gene Ltuc_1293
It is filed as biochemical.

A further data set addresses Lart1 (Legionella pneumophila, UniProt Q5ZZ30). Conditions: 250 μM etheno-NAD+, 0-8 mM nicotinamide, 0.5 mg/ml DdGlud2; pH 7.5, 100 mM NaCl, room temperature.
The target in another data set is T3, DdGlud2 (Dictyostelium discoideum, UniProt Q54VI3).
T3 construct: gene glud2; full-length, His6-SUMO tag cleaved by ULP, E. coli BL21 Rosetta; elutes at 212 kDa
T3 sequence (Q54VI3 1-1042): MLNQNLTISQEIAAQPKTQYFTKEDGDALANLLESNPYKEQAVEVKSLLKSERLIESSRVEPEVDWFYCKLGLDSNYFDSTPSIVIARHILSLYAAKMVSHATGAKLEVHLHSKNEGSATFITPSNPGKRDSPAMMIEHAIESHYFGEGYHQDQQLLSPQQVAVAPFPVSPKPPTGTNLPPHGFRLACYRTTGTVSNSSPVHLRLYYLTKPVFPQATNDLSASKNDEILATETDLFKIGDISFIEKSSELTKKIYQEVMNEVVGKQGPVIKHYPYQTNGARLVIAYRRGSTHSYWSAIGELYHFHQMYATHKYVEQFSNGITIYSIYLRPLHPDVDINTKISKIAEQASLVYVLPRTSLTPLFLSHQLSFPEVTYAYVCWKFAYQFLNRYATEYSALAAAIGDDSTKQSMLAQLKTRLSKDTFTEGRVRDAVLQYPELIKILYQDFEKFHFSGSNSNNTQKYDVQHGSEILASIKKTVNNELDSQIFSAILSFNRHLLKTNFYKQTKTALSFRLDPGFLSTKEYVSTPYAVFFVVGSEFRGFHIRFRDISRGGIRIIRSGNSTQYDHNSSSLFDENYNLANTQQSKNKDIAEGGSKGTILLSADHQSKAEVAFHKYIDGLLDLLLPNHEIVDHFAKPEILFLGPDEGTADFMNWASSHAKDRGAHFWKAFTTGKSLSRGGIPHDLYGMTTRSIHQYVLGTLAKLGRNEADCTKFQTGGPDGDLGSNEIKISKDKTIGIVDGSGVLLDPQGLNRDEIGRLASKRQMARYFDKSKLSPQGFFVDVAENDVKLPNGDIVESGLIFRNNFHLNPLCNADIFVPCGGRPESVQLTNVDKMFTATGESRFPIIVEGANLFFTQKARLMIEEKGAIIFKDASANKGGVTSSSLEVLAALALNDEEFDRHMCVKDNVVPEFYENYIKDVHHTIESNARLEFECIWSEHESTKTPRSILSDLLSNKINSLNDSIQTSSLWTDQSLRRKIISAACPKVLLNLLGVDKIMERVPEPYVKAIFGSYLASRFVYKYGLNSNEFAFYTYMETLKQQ
The experiment in a line: NADH formation at […] nm. The format is biochemical. Conditions: activator; 1 mM GTP, 10 mM Glu, 1 mM NAD+; pH 8.0, 23 °C.

Substrate in the data set “purified protein”: N[C@@H](CCC(=O)O)C(=O)O
Kind of data set: purified protein. Conditions: 5 mM NAD+, 100 mM Tris-HCl pH 8.0, 0.1 mg/ml BSA, 1 mM DTT, 23 °C, oxidative deamination.

The data set “SEC” concerns the molecule itself. Kind of data set: SEC. (In general: In gel filtration, larger molecules generally elute earlier.)

Sequence of Lart1 (Q5ZZ30 whole entry, looked up): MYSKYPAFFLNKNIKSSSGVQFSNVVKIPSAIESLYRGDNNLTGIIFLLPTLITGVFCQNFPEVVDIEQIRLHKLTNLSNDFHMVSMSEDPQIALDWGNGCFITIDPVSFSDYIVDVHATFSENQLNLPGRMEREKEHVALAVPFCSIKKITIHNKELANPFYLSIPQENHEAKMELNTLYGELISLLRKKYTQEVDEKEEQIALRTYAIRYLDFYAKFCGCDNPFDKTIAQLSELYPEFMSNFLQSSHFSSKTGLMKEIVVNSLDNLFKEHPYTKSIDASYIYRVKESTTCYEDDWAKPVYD
T2 sequence (A0A0W0ZWS2 1-330): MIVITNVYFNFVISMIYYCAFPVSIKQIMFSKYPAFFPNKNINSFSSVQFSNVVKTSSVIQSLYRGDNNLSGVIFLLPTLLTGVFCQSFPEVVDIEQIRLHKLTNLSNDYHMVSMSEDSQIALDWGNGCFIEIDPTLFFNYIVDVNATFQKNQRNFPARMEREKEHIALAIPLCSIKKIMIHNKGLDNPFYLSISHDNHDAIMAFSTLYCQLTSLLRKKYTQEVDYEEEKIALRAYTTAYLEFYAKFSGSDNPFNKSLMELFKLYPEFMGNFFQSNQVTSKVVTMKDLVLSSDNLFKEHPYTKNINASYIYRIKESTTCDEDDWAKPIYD
T1 sequence (D3HKA9 1-303): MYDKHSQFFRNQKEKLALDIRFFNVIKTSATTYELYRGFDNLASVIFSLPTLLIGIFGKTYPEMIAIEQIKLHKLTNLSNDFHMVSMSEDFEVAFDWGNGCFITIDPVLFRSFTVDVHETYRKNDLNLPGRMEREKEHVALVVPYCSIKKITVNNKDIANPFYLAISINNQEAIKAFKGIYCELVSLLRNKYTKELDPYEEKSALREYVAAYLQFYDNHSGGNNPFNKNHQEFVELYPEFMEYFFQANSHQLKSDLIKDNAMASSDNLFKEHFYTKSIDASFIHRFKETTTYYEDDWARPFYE

On to `NC(=O)c1ccc[n+]([C@@H]2O[C@H](COP(=O)(O)OP(=O)(O)OC[C@H]3O[C@@H](n4cnc5c4ncn4ccnc54)[C@H](O)[C@@H]3O)[C@@H](O)[C@H]2O)c1` [etheno-NAD+], for which the “ADP-ribosylation of DdGlud2, anti-ethenoadenosine immunoblot” value was “ADP-ribosylated DdGlud2 in assays using both etheno-NAD+ and biotin-NAD+ as substrates” on Llo2453; “ADP-ribosylated DdGlud2 in assays using both etheno-NAD+ and biotin-NAD+ as substrates” at Ltuc1293.
For the molecule `NC(=O)c1cccnc1` [nicotinamide], on Lart1, the inhibition result is on record as “Lart1 ADP ribosylation was inhibited by free nicotinamide in ≥ twofold excess of NAD+”.
As for `Nc1nc2c(ncn2[C@@H]2O[C@H](COP(=O)(O)OP(=O)(O)OP(=O)(O)O)[C@@H](O)[C@H]2O)c(=O)[nH]1` [GTP], on DdGlud2, the “fold stimulation at 1 mM” value is 2.5 fold.

B1: DdGlud2 (Dictyostelium discoideum) (protein)
chain: T3 sequence (Q54VI3 1-1042)
In the case of B1, the Km in “purified protein” is 18.53 (95% CI 10.72, 32.15) mM.

B2: Dictyostelium discoideum Glud2 (NAD+-dependent glutamate dehydrogenase of the 115-kDa class) (enzyme, UniProt Q54VI3 1-1042, looked up)
chain: T3 sequence (Q54VI3 1-1042)
notes: also called DdGlud2; Dictyostelium Glud2; not shown: 6X-His, N-terminal, cleaved; SUMO (yeast SMT3), N-terminal, cleaved
As to B2, in the data set “SEC”, the “stoichiometry N” value came to 2.
